Experiments:
SARC-A2-MELOE-1 cells = experiment: Anti-tumor vaccination with aSLP; format: in vivo, A2/DR1 mice; details: day 36, threshold 50 mm^2; prime 100 μg day 6 plus adjuvant, boost 14 days later; 0/7 in untreated, p=0.0513
Protocol: The SARC-L1 cell line which spontaneously occurred in A2/DR1 mice was genetically modified to over-express HLA-A*0201 as previously described (Rangan et al Oncotarget, 2017). SARC-A2 cells were then transduced with a gammaretroviral dicistronic vector encoding the whole MELOE-1 antigen and, downstream of an IRES element, a puromycin N-acetyltransferase allowing selection of the transduced cells with puromycin (5 μg/mL). HLA-A*0201 expression was checked by flow cytometry. The capacity of the MELOE-1-transduced SARC-A2 (SARC-A2-MELOE-1) cells to present the A2-restricted MELOE-1 epitope was confirmed by their recognition by an HLA-A*0201-restricted T cell clone (data not shown).
A2/DR1 mice were subcutaneously injected with 2×10^5 SARC-A2-MELOE-1 cells in 100 μl in the right flank. The first vaccination with aSLP (100 μg in IFA, as above) or adjuvant alone or PBS started when tumor became detectable (around 10 mm2). […] Tumor growth was evaluated twice a week using a caliper and mice were euthanized when their tumor exceeded 300 mm^2. The efficiency of anti-tumor vaccination was evaluated by Fisher's exact test (α=0.5%).
To evaluate the anti-tumor potential of vaccination with aSLP, we used the previously described SARC-A2 cell line transduced with a cDNA encoding the whole MELOE-1 antigen. […] Mice were monitored until the end point at day 36. […]

[1] = system: CD4+ T cells restimulated with MELOE-113-27; experiment: Immunization of transgenic mice with SLP, ex vivo CD4 ELISpot-IFN-g; format: in vivo, HLA-DRB1*0101/HLA-A*0201 transgenic mice; details: immunized mice, FIG. 7C
Protocol: HLA-DRB1*0101/HLA-A*0201 transgenic mice (A2/DR1 mice) were used to evaluate immunogenicity of peptides. Group of 5 female A2/DR1 mice (6 to 10 weeks) were immunized subcutaneously with 100 μg of each peptides emulsified in incomplete Freund adjuvant (v/v) plus 50 μg of polyI:C. At day 14 and day 28 boost vaccinations were performed with 50 μg of each peptide along with the same adjuvants. All experiments were carried out according to the good laboratory practices defined by the animal experimentation Rules in France.
Specific immune responses were evaluated 10 days after the last boost by ELISpot-IFN-g (Diaclone, France). […] Ex vivo CD4 T cell responses were evaluated on the CD8 negative fraction as above with the HLA-DRB1*0101-restricted epitope MELOE-113-27. […] Spot-forming cells were counted using the «C.T.L. Immunospot» system (Cellular Technology Ltd). […]
Finally, we explored the immunogenicity of our SLP in vivo in HLA-DRB1*0101/HLA-A*0201 transgenic mice. […] We focused on cross-presentation and thus assessed CD8 T cell responses by ELISpot-IFN-g after re-stimulation with the short MELOE-1136-44 epitope (SEQ ID NO:31) or with medium alone. […] In contrast, CD4 responses evaluated ex vivo towards the HLA-DRB1*0101 epitope were very low (FIG. 7C).

TSREQFLPSEGAACPPWLLSVGGTLNDECWPASL (Synthetic SLP) [SEQ ID NO: 87]
mice in which tumor growth was inhibited (SARC-A2-MELOE-1 cells): 4/8 | CD4 responses evaluated ex vivo towards the HLA-DRB1*0101 epitope [1]: very low
